Experimental data as given in publication PMC12459184, “Design, synthesis, and bioevaluation of pyrazole-containing tubulin polymerisation inhibitors based on conformational constraint strategy” (Journal of Enzyme Inhibition and Medicinal Chemistry, 2025).
Read-outs that look alike come from different tables or passages of the source.

Tests used:
PC-3 cell line = experiment: MTT cell viability after 24 h; type: cell-based; settings: Homo sapiens, read-out: cell viability
Method: An MTT assay was made on PC-3 cell line to test the cell viability after treated with different concentrations of compounds 4k and 5a after 24 h which was the same period as immunofluorescence assay.

Cyclin B1 = experiment: Western blot assay, Cyclin B1; type: cell-based, human; settings: PC-3 cells, at the concentrations of 20 and 40 nM
Method: Additionally, western blot assay was employed to measure the expression level of cell cycle-related proteins cyclin-dependent kinase 1 (CDK1) and Cyclin B1.
PC-3 cells in logarithmic phase were harvested and seeded onto culture plates, and were cultured for 24 h. […] The proteins of PC-3 cells were extracted by RIPA buffer containing 1% PMSF (Beyotime Biotechnology, China). The protein concentration was measured by BCA Assay Kit (SEVEN Biotech, China). Equal amounts and concentration of protein were diluted in 5× loading buffer (Beyotime, China) and denatured by boiled for 5 min. Protein samples were separated on 12.5% SDS-PAGE gels (EpiZyme, China) and transferred to PVDF membranes (Millipore Corporation, Billerica, MA, USA). The membranes were blocked in QuickBlockTM Block Buffer (SEVEN Biotech, China) for 10 min at room temperature. Then the membranes were incubated with the primary antibodies overnight at 4 °C, including Cyclin B1 (1:2000, Proteintech, China), CDK1 (1:5000, Proteintech, China), BAX (1:5000, Proteintech, China), Bcl2 (1:1000, Proteintech, China), Caspase 9/p35/p10 (1:1000, Proteintech, China), and β-actin (1:20 000, Proteintech, China). […] The protein signals were detected by using chemiluminescent reagents kit (NCM Biotech, China) and visualised with ChemiDocImaging System (Tanon 5200, China). Protein expressions was quantified by using Fiji/ImageJ software.

[1] = test system: microtubule network in PC-3 cells; experiment: Immunofluorescence assay of microtubule network; type: cell-based, human; settings: 50 nM, 24 h
Method: To evaluate the effects of 4k and 5a on intracellular microtubule, immunofluorescence assay was carried out to observe the changes of microtubule network in cell.
PC-3 cells in logarithmic phase were harvested and seeded onto 12-well cell plates with round coverslip on the bottom of each well at a density of 3 × 10^4 cells per well, and were cultured for 24 h. […] The medium was removed, and cells were washed with PBS twice, fixed with 4% formaldehyde in PBS for 30 min, then the solution was removed. Cells were washed with PBS twice, permeabilized with 0.2% (v/v) Triton X-100 in PBS for 30 min, then the solution was removed. Cells were washed with PBS twice, blocking the cells in 5% bovine serum albumin (BSA) for 30 min. Then BSA was removed, and cells were incubated with the primary α-tubulin antibody (Santa Cruz, CA) containing 2% BSA (v/v, 1: 100) overnight at 4 °C.
The following steps were operated in dark environment. The antibody was removed, then cells were washed with PBST twice and were added FITC-conjugated anti-mouse secondary antibody diluted (1:100) with 2% BSA in PBS and incubated at room temperature for 4 h. The cells were then washed with PBST twice, stained with 4′,6-diamidino-2-phenylindole (DAPI) for 30 min at room temperature, and washed with PBS twice. The round coverslips at the bottom of wells were taken out, and the images were photographed by a confocal microscope.

PC-3 cells [2] = experiment: Colony formation assay; type: cell-based, human; settings: PC-3, 20 nM, 24 h treatment then one week culture
Source text: Colony formation assay was selected to assess the effect of 4k and 5a on clonogenic formation of PC-3 cells.
PC-3 cells in logarithmic phase were harvested and seeded onto 12-well cell plates at a density of 1 × 10^3 cells per well. […] Then the medium was removed, and cells were washed with PBS and added fresh medium containing 10% FBS. The cells were continued to culture for one week. The medium was removed, and the cells were fixed with 4% paraformaldehyde and subsequently stained with crystal violet solution. Images were taken and analysed by Fiji/ImageJ software.

PC-3 cells [3] = experiment: Cell cycle analysis by flow cytometry; type: cell-based, human; settings: 24 h, vehicle 15%
Method: The G2/M phase of cell cycle involves mass physiological activities of microtubules, and tubulin polymerisation inhibitors could arrest cell cycle in G2/M phase by inhibiting microtubule polymerisation.
PC-3 cells in logarithmic phase were harvested and seeded onto 6-well cell plates at a density of 2.5 × 10^5 cells per well, and were cultured for 24 h. […] The cells were digested using trypsin and the suspended cells were harvested. Then the cells were washed with PBS and fixed in 75% ice-cold ethanol at 4 °C overnight. The fixed cells were harvested by centrifugation and washed with PBS, resuspended in 535 μL buffer containing 10 μL RNase (50 ×) and 25 μL PI (20 ×). After incubation at 37 °C in the dark for 30 min, the samples were filtered by nylon screen and detected by FACScan flow cytometry (BectoneDickinson, Franklin Lakes, NJ, USA).

A549 cells = experiment: MTT antiproliferative assay, A549; type: cell-based; settings: Homo sapiens, 72 h drug exposure, read-out: IC50 (μM) ± SD A549
Method: All cell lines tested in this study were purchased from the American Type Culture Collection (ATCC, Manassas, VA). SGC-7901 (human gastric adenocarcinoma), HCT-116 (human colon carcinoma), and A549 (human pulmonary carcinoma) cells were cultured in RPMI-1640 medium containing 10% foetal serum (FBS) and 1% penicillin-streptomycin solution (100×). MCF-7 (human breast carcinoma) cells were cultured in DMEM medium containing 10% foetal serum (FBS) and 1% penicillin-streptomycin solution (100×). PC-3 (human prostate carcinoma) cells were cultured in Ham’s F-12K medium containing 10% foetal serum (FBS) and 1% penicillin-streptomycin solution (100×). All cells were cultured at 37 °C in a humidified atmosphere containing 5% CO2.
Cells grown in logarithmic phase were harvested and seeded onto 96-well cell plates at a density of 4 ∼ 5 × 10^3 cells per well (various from cell type) and were cultured for 24 h. Different concentrations of compounds were added into the wells, and the cells were cultured for another 72 h. The medium was removed, then 20 μL of MTT (5 mg/mL in PBS) was added to each well and the cells were incubated for 4 h. 150 μL of DMSO was added to each well to dissolve the formazan, and the absorbance at 490 nm of each well was measured by a microplate reader. IC50 values were calculated by SPSS software.

| SMILES | viability at 0.00051 µM (PC-3 cell line; PC-3, 24 h) [%] | viability at 1.111 µM (PC-3 cell line; PC-3, 24 h) [%] | level of Cyclin B1 (Cyclin B1) | effect on microtubule network [1] | colony formation compared to control (PC-3 cells [2]) [%] | proportion of cells in G2/M phase (PC-3 cells [3]; 70 nM) [%] | proportion of cells in G2/M phase (PC-3 cells [3]; 100 nM) [%] | IC50 (A549 cells) [µM] | viability at 0.00051 µM (PC-3 cell line; PC-3, MTT, 24 h, 0.51 nM) [%] | viability at 1.111 µM (PC-3 cell line; PC-3, MTT, 24 h, 1111 nM) [%] | proportion of cells in G2/M phase (PC-3 cells [3]; 10–40 nM) |
| --- | --- | --- | --- | --- | --- | --- | --- | --- | --- | --- | --- |
| COc1cc(C2=NCC(=O)Nc3cn(-c4ccccc4)nc32)cc(OC)c1OC [5a, 2-Phenyl-8–(3,4,5-trimethoxyphenyl)-2,6-dihydropyrazolo[4,3-e][1,4]diazepin-5(4H)-one] | 76.6 | 39.6 | increase | microtubule network was destroyed | 34.9 | 35 | 71 | 0.063 ± 0.017 | – | – | – |
| COc1cc(C(=O)c2nn(-c3ccc(N)cc3)cc2N)cc(OC)c1OC [4k, (4-amino-1–(4-aminophenyl)-1H-pyrazol-3-yl)(3,4,5-trimethoxyphenyl)methanone] | – | – | increase | microtubule network was destroyed | 5.7 | – | – | 0.04 ± 0.012 | 91.6 | 41.6 | 33–71% |
